{
  "source": "ChEMBL document CHEMBL3832042",
  "about": "“DailyMed|setid=5d4f90d4-e535-4681-a863-3d774a2064e6 | ANASTROZOLE - anastrozole tablet|PD-Rx Pharmaceuticals, Inc”",
  "key": {"[1]": {"test": "Evaluation of pharmacokinetic parameters for Anastrazole following single oral administration of Anastrazole to subjects under fatsed and fed conditions.", "details": "human, in vivo"}, "Homo sapiens": {"tested_on": "Homo sapiens", "test": "Evaluation of pharmacokinetic parameters for Anastrazole following multiple oral administration of Anastrazole to Caucasian and to Japanese female subjects.", "assay_type": "ADME, organism-based", "details": "in vivo, dose 1 mg, dosed compound id 24, dosed compound name ANASTROZOLE, gender female, regimen every 24h, study dosing duration 16 days, tissue Plasma"}},
  "note": "“And” between values parts separate entries of the source, which are not always exact repeats. Equal entries are not always repeated.",
  "data": [
    {"molecule": "CC(C)(C#N)c1cc(Cn2cncn2)cc(C(C)(C)C#N)c1", "note": "[ANASTROZOLE]", "values": [
      {"measurement": "half-life", "setting": "[1]", "value": 3000, "unit": "min"},
      {"measurement": "Cmin ss", "setting": "Homo sapiens", "value": "30.4 ng/mL and 25.7 ng/mL"}
    ]}
  ]
}
